Structures can show the parent of a compound that is named as a salt.
Experiments:
[1] = target: T1, wild type human RORγt ligand binding domain (RORγt LBD) (Homo sapiens, UniProt P51449); assay: RORγt ThermoFluor® Assay (thermal shift, binding affinity); conditions: pH 7.0, estimated from concentration response curves
T1 construct: His-tag (N); TurboTEV protease cleavage site (ENLYFQG) (N); made in house; host or cells: E. coli (pHIS1, modified pET expression vector)
T1 sequence (P51449 269-508 limits assumed): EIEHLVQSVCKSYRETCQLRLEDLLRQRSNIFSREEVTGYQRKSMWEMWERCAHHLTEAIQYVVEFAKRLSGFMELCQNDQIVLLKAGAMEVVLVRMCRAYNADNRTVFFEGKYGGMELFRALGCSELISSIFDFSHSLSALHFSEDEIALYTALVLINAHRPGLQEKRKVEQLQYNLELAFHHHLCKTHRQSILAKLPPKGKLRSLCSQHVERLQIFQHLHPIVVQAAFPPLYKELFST
In short: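 Thermal shift assay on 0.065 mg/mL RORγt LBD with 60 µM 1,8-ANS in 100 mM Hepes pH 7.0, 10 mM NaCl, 2.5 mM GSH, 0.002% Tween-20. Heated at 1 °C/min, fluorescence read at 500 nm.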

[2] = target: T2, wild type human RORγt LBD (Homo sapiens, UniProt P51449); assay: RORγt Reporter Assay (GAL4-RORγt LBD luciferase in HEK293T cells); assay type: cell-based; conditions: HEK293T cells; for IC50: compounds for 24 hours, read-out: RORγt reporter Assay, IC50; for inhibition at 6 µM: HEK-293T, read-out: RORγt reporter Assay, % inhibition @ 6 µM, @ 6 µM
T2 construct: expressed in transfected cells; host or cells: HEK293T
T2 sequence (P51449 269-508 limits assumed): T1 sequence (P51449 269-508 limits assumed)
In short: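 HEK293T cells transiently co-transfected with GAL4-DBD–human RORγt LBD (or AF2 mutant) and GAL4-responsive firefly luciferase reporter; renilla luciferase normalised transfection and viability. Compounds applied 24 h in 5% lipid-reduced FCS; firefly/renilla ratio plotted against concentration.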

[3] = test system: IL-17 production by CD4 T cells; assay: Human Th17 Assay (IL-17 production by CD4 T cells under Th17 differentiation conditions); assay type: cell-based; conditions: Homo sapiens, CD4+ T, 72 h, 3 days, IL-17 in supernatant
Procedure: The human Th17 assay tests the effect of RORγt modulatory compounds on IL-17 production by CD4 T cells under conditions which favor Th17 differentiation. Total CD4^+ T cells were isolated from the peripheral blood mononuclear cells (PBMC) of healthy donors using a CD4^+ T cell isolation kit II, following the manufacturer's instructions (Miltenyi Biotec). […] 50 µL of compound at titrated concentrations in DMSO were added into each well at final DMSO concentration at 0.2%. Cells were incubated for 1 hour, then 50 µL of Th17 cell differentiation medium was added to each well. The final concentrations of antibodies and cytokines (R&D Systems) in differentiation medium were: 3x10^6/mL anti-CD3/CD28 beads (prepared using human T cell activation/expansion kit, Miltenyi Biotec), 10 µg/mL anti-IL4, 10 µg/mL anti-IFNγ, 10 ng/mL […], 10 ng/mL IL23, 50 ng/mL IL6, 3 ng/mL TGFβ and 20 U/mL IL2. Cells were cultured at 37 °C and 5% CO2 for 3 days. Supernatants were collected and the accumulated IL-17 in culture was measured by using MULTI-SPOT® Cytokine Plate following manufacture's instruction (Meso Scale Discovery). The plate was read using Sector Imager 6000, and IL-17 concentration was extrapolated from the standard curve. The IC50s were determined by GraphPad.

Structure (SMILES)	Kd [1] [µM]	RORγt reporter Assay, % inhibition @ 6 µM ([2]; @ 6 µM) [%]	IC50 [2] [µM]	IC50 [3] [µM]	inhibition at 6 µM [2] [%]
Cc1nc(C)c(C(O)(c2ccc3nc(C#N)c(-c4ccccc4)c(C#N)c3c2)c2cnnn2C)s1 (single isomer, unassigned) [Example 47c, 6-((2,4-Dimethylthiazol-5-yl)(hydroxy)(1-methyl-1H-1,2,3-triazol-5-yl)methyl)-3-phenylquinoline-2,4-dicarbonitrile]	0.0019	100	0.025	0.054	–
COc1nc2ccc(C(O)(c3ccc(C(F)(F)F)nc3)c3cncn3C)cc2c(Cl)c1-c1cncnc1 (centres unmarked) [Example 10, (4-Chloro-2-methoxy-3-pyrimidin-5-ylquinolin-6-yl)(1-methyl-1H-imidazol-5-yl)[6-(trifluoromethyl)pyridin-3-yl]methanol•TFA]	0.2	–	0.32	1.5	89
COc1nc2ccc(C(O)(c3ccc(C(F)(F)F)nc3)c3cncn3C)cc2c(Cl)c1-c1ccc(C#N)cc1 (centres unmarked) [Example 16, 4-(4-Chloro-6-{hydroxy(1-methyl-1H-imidazol-5-yl)[6-(trifluoromethyl)pyridin-3-yl]methyl}-2-methoxyquinolin-3-yl)benzonitrile•TFA]	0.027	–	0.2	0.081	86
Cn1cncc1C(O)(c1ccc2nc(C(F)(F)F)c(-c3ccccc3)c(Cl)c2c1)c1ccccn1 (centres unmarked) [Example 61, (4-Chloro-3-phenyl-2-(trifluoromethyl)quinolin-6-yl)(1-methyl-1H-imidazol-5-yl)(pyridin-2-yl)methanol•TFA]	0.45	–	0.13	0.48	105
OC(c1ccccc1)(c1ccncc1)c1ccc2nc(Cl)c(-c3ccccc3Cl)c(Cl)c2c1 (centres unmarked) [Example 73, (2,4-Dichloro-3-(2-chlorophenyl)quinolin-6-yl)(phenyl)(pyridin-4-yl)methanol]	20	–	0.7	~6	80

Reference: patent EP3057950B1, “PHENYL LINKED QUINOLINYL MODULATORS OF ROR-GAMMA-T” (Janssen Pharmaceutica NV, priority 2013, dated 2015)
